Data set [1] has as its system NALM-6. The data set can be described thus: Induction of apoptosis in human NALM6 cells assessed as necrotic cells at 0.5 uM measured after 24 hrs by annexin V-propidium iodide staining based flow cytometric analysis (reference value: 0.0%). Format: functional.
The test system of data set [2] is SEM cells. Nature of the data set: Induction of apoptosis in human SEM cells assessed as necrotic cells at 1 uM measured after 24 hrs by annexin V-propidium iodide staining based flow cytometric analysis (reference value: 0.0%). Format: functional.
The test system of data set [3] is SEM cells. Nature of the data set: Induction of apoptosis in human SEM cells assessed as activated caspase3 levels at 0.5 uM after 6 hrs by immunoblot analysis. Type of data set: functional, cell-based.
In data set [4] the test system is SEM cells. The data set can be described thus: Induction of apoptosis in human SEM cells assessed as early apoptotic cells at 1 uM measured after 24 hrs by annexin V-propidium iodide staining based flow cytometric analysis (reference value: 85.3%). Type of data set: functional.
The test system of data set [5] is SEM cells. The data set can be described thus: Effect on cell cycle in human SEM cells assessed as accumulation at G0/G1 phase at 1 uM after 24 hrs by propidium iodide staining based flow cytometry analysis (reference value: 45.75%). Format: functional.
The subject of data set [6] is NALM-6. The data set can be described thus: Induction of apoptosis in human NALM6 cells assessed as cleaved PARP level at 0.5 uM measured after 3 and 6 hrs by immunoblot analysis. Format: functional, cell-based.
In data set [7] the test system is NALM-6. The data set can be described thus: Induction of apoptosis in human NALM6 cells assessed as cleaved PARP level at 0.5 uM measured after 12 hrs by immunoblot analysis. Format: functional, cell-based.
For data set [8], the system named is NALM-6. The data set can be described thus: Induction of apoptosis in human NALM6 cells assessed as activated caspase3 level at 0.5 uM after 3 hrs by immunoblot analysis. Format: functional, cell-based.
For data set [9], the system named is SEM cells. The data set can be described thus: Induction of apoptosis in human SEM cells assessed as viable cells at 1 uM measured after 24 hrs by annexin V-propidium iodide staining based flow cytometric analysis (reference value: 1.5%). The following applies: read-out: Activity. Type of data set: functional.
In data set [10] the test system is SEM cells. Nature of the data set: Induction of apoptosis in human SEM cells assessed as late apoptotic cells at 1 uM measured after 24 hrs by annexin V-propidium iodide staining based flow cytometric analysis (reference value: 7.2%). Type of data set: functional.
Data set [11] has as its system NALM-6. The data set can be described thus: Induction of apoptosis in human NALM6 cells assessed as late apoptotic cells at 0.5 uM measured after 24 hrs by annexin V-propidium iodide staining based flow cytometric analysis (reference value: 4.3%). Format: functional.
For data set [12], the system named is NALM-6. The data set can be described thus: Induction of apoptosis in human NALM6 cells assessed as early apoptotic cells at 0.5 uM measured after 24 hrs by annexin V-propidium iodide staining based flow cytometric analysis (reference value: 91.5%). Format: functional.
Data set [13] in a line: Cytotoxicity in human SEM cells assessed as cell death at 1 uM after 24 hrs. Type of data set: cell-based.
Data set [14] in a line: Cytotoxicity against human SEM cells after 72 hrs by Cell-Titer Glo assay. Format: functional, cell-based.
A short description of data set [15]: Cytotoxicity against human NALM6 cells after 72 hrs by Cell-Titer Glo assay. Format: functional, cell-based. The following applies: NALM-6, 72 h.
The test system of data set [16] is BJ. The data set can be described thus: Cytotoxicity against human BJ cells after 72 hrs by Cell-Titer Glo assay. Type of data set: cell-based.
Data set [17] has as its system HEK293. The data set can be described thus: Cytotoxicity against HEK293 cells after 72 hrs by Cell-Titer Glo assay. Type of data set: cell-based. The following applies: Homo sapiens, HEK293, 72 h.
In data set [18] the test system is HepG2. The data set can be described thus: Cytotoxicity against human HepG2 cells after 72 hrs by Cell-Titer Glo assay. Type of data set: functional, cell-based. The following applies: HepG2, 72 h.
Data set [19] has as its system Raji. The data set can be described thus: Cytotoxicity against human Raji cells after 72 hrs by Cell-Titer Glo assay. Format: functional, cell-based.
In data set [20] the test system is Jurkat. Nature of the data set: Cytotoxicity against human Jurkat cells after 72 hrs by Cell-Titer Glo assay. Format: functional, cell-based.

Calls of active or inactive are those of the source. The rule behind the calls is not given here.

Consider `CN[C@@H]1C[C@H]2O[C@@](C)([C@@H]1OC)n1c3ccccc3c3c4c(c5c6ccccc6n2c5c31)C(=O)NC4` [STAUROSPORINE], for which the Activity in [1] came out at 0%; in data set [2] it was 0%; in [4], 2.6%; in data set [5], 100%; in data set [10], 85.3%; in data set [11], 25%. Also, the values for the Activity in data set [12] and in data set [13] were 49% and “Toxic”, respectively. Moreover, the outcome in [3], in [6], in data set [7] and in [8] was Active. In addition, in [9], the viability at 1 µM came out at 5.5%.

As to `C=C[C@@](C)(/C=C/c1ccc(OCc2ccccc2)cc1)CCC=C(C)C`, the concentration for a half-maximal effect (EC50) is over 36.6 µM in [14]; over 43.5 µM in data set [15]; over 36.6 µM in [16]; over 36.6 µM in data set [17]; over 52.1 µM in data set [18]; over 26 µM in [19]. In [20], this compound had an EC50 of over 49 µM.

With `C=C[C@@](C)(/C=C/c1ccc(O)c(/C=C/c2ccc(Cl)c(Cl)c2)c1)CCC=C(C)C`, the concentration giving a half-maximal response (EC50) in data set [14] is over 7.51 µM; in [15], 7.51 µM; in [16] it was over 13 µM; in [17], over 36.6 µM; in data set [18], over 52.1 µM; in data set [19], over 26 µM. This compound registered an EC50 in data set [20] of over 49 µM.

Take `COc1ccc(/C=C/[C@@](C)(/C=C/c2ccc(O)c(C=O)c2)CCC=C(C)C)cc1`: the concentration for a half-maximal effect (EC50) in data set [14] is 4.55 µM; in data set [15], over 43.5 µM; in data set [16], 9.8 µM; in data set [17], 2.27 µM; in data set [18], over 26 µM; in data set [19], 13 µM. The EC50 in [20] is over 49 µM.

For the compound `C=C[C@@](C)(/C=C/c1ccc(O)c(CO)c1)CCC=C(C)C`, the EC50 is over 36.6 µM in data set [14]; 16.4 µM in [15]; over 36.6 µM in data set [16]; over 36.6 µM in data set [17]; over 52.1 µM in [18]; over 26 µM in data set [19]. The EC50 in data set [20] was over 49 µM.

For `C=C[C@@](C)(/C=C/c1ccc(O)c(/C=C/c2ccc(F)cc2)c1)CCC=C(C)C`, the EC50 in [14] is over 36.6 µM; in data set [15], over 43.5 µM; in data set [16] it was over 36.6 µM; in data set [17], over 36.6 µM; in data set [18], over 52.1 µM; in data set [19], over 26 µM. For the same compound, in [20], the EC50 was over 49 µM.

In the case of `C=C[C@](C)(CCCC(C)C)CCc1ccc(O)cc1`, the EC50 is over 36.6 µM in data set [14]; 27.5 µM in data set [15]; over 36.6 µM in [16]; over 36.6 µM in data set [17]; over 52.1 µM in [18]; over 26 µM in [19]. The EC50 in data set [20] is over 49 µM.

Take `COc1ccc(/C=C/[C@@](C)(/C=C/c2ccc(O)c(/C=C/C(=O)OC(C)(C)C)c2)CCC=C(C)C)cc1`: the EC50 is over 36.6 µM in [14]; over 43.5 µM in data set [15]; over 36.6 µM in data set [16]; over 36.6 µM in data set [17]; over 52.1 µM in data set [18]; over 26 µM in [19]. The EC50 in data set [20] was over 49 µM.

Regarding `C=C[C@@](C)(/C=C/c1ccc(O)c(C=O)c1)CCC=C(C)C`, the EC50 was 8.51 µM in data set [14]; 11.2 µM in data set [15]; over 36.6 µM in data set [16]; over 36.6 µM in [17]; over 52.1 µM in [18]; over 26 µM in data set [19]. In addition, in data set [20], the EC50 was over 49 µM.

`C=C[C@@](C)(/C=C/c1ccc(O)cc1)CC/C=C/C(=O)c1ccccc1`: the EC50 in [14] is over 36.6 µM; in data set [15] it was over 43.5 µM; in data set [16] it was over 36.6 µM; in data set [17] it was over 36.6 µM; in [18] it was over 52.1 µM; in [19] it was over 26 µM. The EC50 in [20] was over 49 µM.

Take `C=C[C@@](C)(/C=C/c1ccc(O)c(/C=C/C#N)c1)CCC=C(C)C`: the EC50 was over 36.6 µM in data set [14]; over 43.5 µM in data set [15]; over 36.6 µM in data set [16]; over 36.6 µM in data set [17]; over 52.1 µM in [18]; over 26 µM in data set [19]. The compound further returned an EC50 in data set [20] of over 49 µM.

In the case of `C=C[C@@](C)(/C=C/c1ccc(O)cc1)CC/C=C(C)/C=C/C(=O)OCc1ccccc1`, the EC50 was over 36.6 µM in [14]; 36 µM in data set [15]; over 36.6 µM in data set [16]; over 36.6 µM in data set [17]; over 52.1 µM in data set [18]; over 26 µM in data set [19]. In data set [20], this compound had an EC50 of over 49 µM.

In the case of `C=C[C@@](C)(/C=C/c1ccc(O)cc1)CCC=O`, the concentration giving a half-maximal response (EC50) was over 36.6 µM in data set [14]; over 43.5 µM in data set [15]; over 36.6 µM in [16]; over 36.6 µM in data set [17]; over 52.1 µM in [18]; over 26 µM in data set [19]. In data set [20], this compound registered an EC50 of over 49 µM.

Consider `C=C[C@@](C)(/C=C/c1ccc(O)c(/C=C/C=C/c2ccccc2)c1)CCC=C(C)C`, for which the EC50 in [14] was over 15 µM; in data set [15], over 43.5 µM; in [16], over 36.6 µM; in data set [17] it was over 36.6 µM; in data set [18] it was over 52.1 µM; in [19], over 26 µM. Besides, the EC50 in data set [20] is over 49 µM.

Regarding `COc1ccc(/C=C/[C@@](C)(/C=C/c2ccc(O)cc2)CCC=C(C)C)cc1`, the EC50 is over 36.6 µM in data set [14]; over 43.5 µM in [15]; over 36.6 µM in [16]; over 36.6 µM in data set [17]; over 52.1 µM in data set [18]; over 26 µM in [19]. In data set [20], this compound returned an EC50 of over 49 µM.

The record behind these values is ChEMBL document CHEMBL3779792, “Anti-proliferative evaluation of monoterpene derivatives against leukemia” (Eur J Med Chem, 2016).
